Columns and labels:
S1PL2021 [1] = target: T1, S1PL2021 (Burkholderia pseudomallei, UniProt Q63IP8)
T1 construct: gene BPSS2021

S1PL2021 [2] = target: T1, S1PL2021; remark: listed apart in the source

T1 sequence (Q63IP8 21-493 limits assumed): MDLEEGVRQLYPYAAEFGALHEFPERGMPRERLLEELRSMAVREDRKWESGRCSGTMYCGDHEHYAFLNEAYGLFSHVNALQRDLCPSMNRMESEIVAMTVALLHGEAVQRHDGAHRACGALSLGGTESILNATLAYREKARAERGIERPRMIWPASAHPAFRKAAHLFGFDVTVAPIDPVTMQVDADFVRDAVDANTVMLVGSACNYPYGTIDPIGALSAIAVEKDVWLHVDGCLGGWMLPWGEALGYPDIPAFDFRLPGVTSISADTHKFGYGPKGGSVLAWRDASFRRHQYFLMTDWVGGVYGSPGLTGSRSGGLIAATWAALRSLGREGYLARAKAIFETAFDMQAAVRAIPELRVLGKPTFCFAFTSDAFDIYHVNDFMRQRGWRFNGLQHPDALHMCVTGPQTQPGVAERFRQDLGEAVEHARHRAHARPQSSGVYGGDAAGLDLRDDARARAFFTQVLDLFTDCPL

Structure (SMILES)	UV-vis spectroscopy of PLP (S1PL2021 [1])	X-ray crystal structure, 2.1 Å (S1PL2021 [2])
CCCCCCCCCCCCC/C=C/[C@@H](O)[C@@H](N)CO [D-erythro sphingosine]	S1PL2021 could also bind the nonphosphorylated substrate, D-erythro sphingosine	
Cc1ncc(COP(=O)(O)O)c(C=O)c1O [PLP]		dimer of S1PL with the PLP cofactor present as an internal aldimine with residue K271
